Some results are limits rather than exact numbers.

Data set [1] relates to cardiac cells (H9C2). The data set can be described thus: Protective effect against t-BHP-induced cell death in cardiac cells (LDH release). Format: cell-based. The following applies: Rattus norvegicus, t-BHP 400 PM, 2 hours, read-out: EC50, protective effect against cell death due to t-BHP induction. How it is done: To confirm a protective effect on cardiac cells, H9C2 cells were seeded at 1.5×10^4 cells/well in a 96-well plate and cultured for 24 hours. The example compounds were diluted to have the final concentration of 0.001, 0.01, 0.03, 0.1, 0.3, 1, 3, 10, and 30 PM, respectively, and then added to different wells, and the resulting cells were cultured for 15 to 20 minutes. Tert-butyl hydroperoxide (t-BHP) was treated to have the final concentration of 400 PM, and the resulting cells were cultured for 2 hours. To confirm the cell death protection effect of each compound, the degree of extracellular secretion of lactate dehydrogenase (LDH) was measured using a cytotoxicity LDH assay kit [Dojindo; CK12]. Briefly, after 2 hours of t-BHP treatment on the cells, 70 μL of the supernatant was taken from the 96-well plate where the cells were cultured and transferred to a new 96-well plate. The assay buffer included in the kit was added at 70 μL/well (equal to that of the sample) and the plate was covered with foil to block light and allowed to react for 15 minutes at room temperature. While observing a color change of each sample, 35 μL/well of a stop solution was added, an absorbance at 490 nm was measured using an iD3 spectrophotometer, and an EC50 value was calculated.
Background: LDH leaks from cells whose membrane has failed.

Data set [2] can be described thus: Pharmacokinetics in plasma after oral administration to ICR mice. Type of data set: in vivo. The following applies: oral 10 mg/kg. The method, then: Pharmacokinetic parameters may include the maximum plasma concentration (Cmax), the time to reach the maximum plasma concentration (Tmax), the area under the plasma concentration-time curve (AUCinf), and a half-life (t1/2).
Example Compound 27 was orally administered to ICR mice at a dose of 10 mg/kg. Drug concentrations in the plasma of mice were measured by HPLC-MS/MS spectroscopy 0.5, 1, 2, 4, 8, or 24 hours after administration.
The comparative example compound was orally administered to ICR mice at a dose of 10 mg/kg. The drug concentrations in the plasma of the mice were measured by HPLC-MS/MS 0.5, 1, 2, 4, 8, or 24 hours after administration.

The subject of data set [3] is hippocampal neurons (HT-22). The data set can be described thus: Protective effect against cell death due to RSL3 (LDH release), HT-22. Type of data set: cell-based. The following applies: Mus musculus, RSL3 0.3 μM, 24 hours. The method, then:
(§1) To confirm cell death protection effects on cardiac cells, adrenal medullary cells, renal fibroblasts, retinal epithelial cells, lung epithelial cells, renal proximal tubular epithelial cells, hippocampal neurons and fibroblasts, each type of cells were seeded at 4×10^3 to 1.2×10^4 cells/well in a 96-well plate and cultured for 18 to 24 hours. The example compounds were diluted to have the final concentration of 0.001, 0.003, 0.01, 0.3, 1, 3, and 10 μM, respectively, and then added to different wells and cultured for 15 to 20 minutes. […] To confirm the cell death protection effect of the example compounds, the degree of extracellular secretion of lactate dehydrogenase (LDH) was measured using a cytotoxicity LDH assay kit [Dojindo; CK12]. Briefly, at the end of 24-hour treatment of each type of cells with RSL3, 70 μL of the supernatant was taken from the 96-well plate where the cells were cultured and transferred to a new 96-well plate. The assay buffer included in the kit was added at 70 μL/well (equal to that of the sample) and the plate was covered with foil to block light and allowed to react for 15 to 20 minutes at room temperature. While observing a color change of the sample, 35 µL/well of a stop solution was added, an absorbance at 490 nm was measured using an iD3 spectrophotometer, and an EC50 value was calculated.

Data set [4] has as its system lung epithelial cells (MLE-12). The data set can be described thus: Protective effect against cell death due to RSL3 (LDH release), MLE-12. Type of data set: cell-based. The following applies: MLE12, RSL3 1 μM, 24 hours. How it is done: as §1
The test system of data set [5] is cardiac cells (H9C2). The data set can be described thus: Protective effect against cell death due to RSL3 (LDH release), H9C2. Format: cell-based. The following applies: Rattus norvegicus, RSL3 0.5 μM, 24 hours. How it is done: as §1
The test system of data set [6] is retinal epithelial cells (ARPE-19). The data set can be described thus: Protective effect against cell death due to RSL3 (LDH release), ARPE-19. Format: cell-based. The following applies: Homo sapiens, RSL3 0.3 μM, 24 hours. How it is done: as §1
Data set [7] deals with renal proximal tubular epithelial cells (HK2). The data set can be described thus: Protective effect against cell death due to RSL3 (LDH release), HK2. Type of data set: cell-based. The following applies: Epithelial cell, RSL3 0.3 μM, 24 hours. How it is done:
as §1

Data set [8] deals with adrenal medullary cells (PC-12). The data set can be described thus: Protective effect against cell death due to RSL3 (LDH release), PC-12. Format: cell-based. The following applies: Rattus norvegicus, RSL3 0.3 μM, 24 hours. The method, then: as §1
Data set [9] has as its system renal fibroblasts (NRK-49F). Kind of data set: Protective effect against cell death due to RSL3 (LDH release), NRK-49F. Type of data set: cell-based. The following applies: Rattus norvegicus, RSL3 3 μM, 24 hours. The method, then:
as §1

The subject of data set [10] is fibroblasts (NIH/3T3). The data set can be described thus: Protective effect against cell death due to RSL3 (LDH release), NIH/3T3. Format: cell-based. The following applies: Mus musculus, NIH3T3, RSL3 3 μM, 24 hours. The method, then: as §1

With `OCCOCc1cc(NC2CCOCC2)c2[nH]c(-c3ccccc3)cc2c1` [Example 27, 2-((2-phenyl-7-((tetrahydro-2H-pyran-4-yl)amino)-1H-indol-5-yl)methoxy)ethan-1-ol], the EC50 in data set [1] was ≤ 0.3 µM; in [3] it was ≤ 0.1 µM; in [4], 0.1 to 1 µM; in [5], ≤ 0.1 µM; in [6], ≤ 0.1 µM; in data set [7], ≤ 0.1 µM. In addition, the EC50 in [8], in data set [9] and in data set [10] was ≤ 0.1 µM throughout. In [2] (mouse, plasma), this molecule showed a Cmax of 4.44 µg/mL. The Tmax in data set [2] (mouse, plasma) came to 1 h. This molecule also showed a half-life in data set [2] (mouse, plasma) of 2.83 h. Moreover, the AUC(0-inf) in data set [2] (mouse, plasma, read-out: area under the plasma concentration-time curve (AUCinf)) stood at 25.1 µg·h/mL. The molecule further returned a concentration at 0.5 h in [2] (mouse, plasma, 0.5 hr) of 3.83 µg/mL. The concentration at 1 h in [2] (mouse, plasma, 1 hr) worked out at 4.44 µg/mL. For the same molecule, in data set [2] (mouse, plasma, 2 hr), the concentration at 2 h was determined as 3.78 µg/mL. Besides, the concentration at 4 h in data set [2] (mouse, plasma, 4 hr) was 2.8 µg/mL. The same molecule displayed a concentration at 8 h in data set [2] (mouse, plasma, 8 hr) of 1.07 µg/mL. In addition, the concentration at 24 h in [2] (mouse, plasma, 24 hr) turned out to be 0.001 µg/mL. Also, the “exposure (AUCinf) relative to the comparative example compound” value in data set [2] was “approximately 5 times”. Further, the “half-life relative to the comparative example compound” value in [2] is on record as “approximately 2 times”. For the same molecule, in data set [2], the “maximum plasma concentration (Cmax) relative to the comparative example compound” value is listed as “approximately 2 times”. Besides, the AUCinf in data set [2] (plasma) is listed as 25,115 ng · hr/mL.
For the molecule `CC1(O)CCC(OCc2cc(NC3CCOCC3)c3[nH]c(-c4ccccc4)cc3c2)CC1` (centres unmarked) [Example 36, 1-methyl-4-((2-phenyl-7-((tetrahydro-2H-pyran-4-yl)amino)-1H-indol-5-yl)methoxy)cyclohexan-1-ol], the EC50 in data set [1] was ≤ 0.3 µM; in data set [3], 0.1 to 1 µM; in [4], 0.1 to 1 µM; in [5], ≤ 0.1 µM; in data set [6], ≤ 0.1 µM; in [7] it was ≤ 0.1 µM. Besides, the EC50 was 0.1 to 1 µM in data set [8], ≤ 0.1 µM in data set [9] and 0.1 to 1 µM in data set [10].
With `FC(F)COCc1cc(NC2CCOCC2)c2[nH]c(-c3ccccc3)cc2c1` [Example 40, 5-((2,2-difluoroethoxy)methyl)-2-phenyl-N-(tetrahydro-2H-pyran-4-yl)-1H-indol-7-amine], the EC50 is ≤ 0.3 µM in [1]; ≤ 0.1 µM in [3]; ≤ 0.1 µM in data set [4]; ≤ 0.1 µM in [5]; ≤ 0.1 µM in [6]; ≤ 0.1 µM in [7]. The EC50 in data set [8] was ≤ 0.1 µM; in data set [9], ≤ 0.1 µM; in data set [10], 0.1 to 1 µM.
`c1ccc(-c2cc3cc(COCCN4CCOCC4)cc(NC4CCCC4)c3[nH]2)cc1` [Example 41, N-cyclopentyl-5-((2-morpholinoethoxy)methyl)-2-phenyl-1H-indol-7-amine]: the EC50 was ≤ 0.3 µM in data set [1]; ≤ 0.1 µM in data set [3]; ≤ 0.1 µM in [4]; ≤ 0.1 µM in data set [5]; ≤ 0.1 µM in data set [6]; ≤ 0.1 µM in data set [7]. The EC50 in data set [8] was ≤ 0.1 µM; in data set [9], ≤ 0.1 µM; in data set [10] it was 0.1 to 1 µM.

As a reminder, the EC50 is the concentration giving half of the maximal effect. The Cmax is the peak of the concentration-time curve. By Tmax is commonly meant the time at which the peak concentration occurs. What is called half-life is the time in which the quantity being followed falls by half. High values mean slow decline, low ones rapid decline.

The values above are taken from patent publication US20260159481A1, “INDOLE DERIVATIVE WITH SUBSTITUENT AND PHARMACEUTICAL USE” (MITOIMMUNE THERAPEUTICS INC., priority 2023, published 2026).
